# In PMC10444862, “Using macromolecular electron densities to improve the enrichment of active compounds in virtual screening” (Communications Chemistry, 2023):
# Target: SARS-COV-2 3CLpro (having a P132H mutation, 3CLpro^P132H) (Severe acute respiratory syndrome coronavirus 2, UniProt P0DTD1, P3395H)
# Format: biochemical
row,SMILES,Inhibition Rate ([Cpd.]=40 uM)
1,"O=C(CSc1nc(-c2ccccc2F)nc2c1cnn2-c1ccccc1)NC1CC1 [E23, O=C(CSc1nc(-c2ccccc2F)nc2c1cnn2-c1ccccc1)NC1CC1]",< 0.5
2,"COc1ccc(N2C(=O)C3C(Cc4c[nH]c5ccccc45)NC4(C(=O)Nc5ccccc54)C3C2=O)cc1 (centres unmarked) [E24, COc1ccc(N2C(=O)C3C(Cc4c[nH]c5ccccc45)NC4(C(=O)Nc5ccccc54)C3C2=O)cc1]",< 0.5
